Each structure is given as a SMILES string.

The experiment can be described thus: Calcium binding: titration with calcium chloride solution using a calcium-ion-selective electrode; binding constant calculated by the method of Tanford. As to the method:
The calcium binding properties of the polymers were measured by titration of the samples with a calcium chloride solution using a calcium-ion-selective electrode of the type Radiometer (Trade Mark) F2112Ca. The calcium binding constant pKCa2+ was calculated by the method of C Tanford in Chapter 8, Multiple Equilibria, Physical Chemistry of Macromolecules, John Wiley, New York, 1961.
Values of pKCa2+ of 4.0 or above represent materials likely to be useful as detergency builders, either alone or in conjunction with other builder materials. The value for sodium tripolyphosphate is 6.0, and any figure higher than this indicates excellent building.

Regarding `O=P(O)(O)OP(=O)(O)OP(=O)(O)O` [sodium tripolyphosphate], the “pKCa2+” value was 6.0.
